Reference: patent publication US20260283988A1, “FERROPTOSIS INHIBITORS” (priority 2023, published 2026)
Read-outs that look alike come from different tables or passages of the source.

How the values were obtained:
HT-1080 = assay: Ferroptosis inhibition, cell viability assay (CellTiter-Glo); type: cell-based, Human; details: for IC50: Homo sapiens; for cellular efficacy/toxicity window: cytotoxic IC50 versus ferroptosis inhibition IC50, 1080 min
Description: Cell lines: Human fibrosarcoma cell line HT-1080 and immortalized Mouse Embryonic Fibroblasts (MEF). MEFs were a gift from Daniel Krappmann, HT-1080 were purchased from ATCC and both cell lines were grown in Dulbecco's Modified Eagle's medium (Thermo Fisher Scientific, 41966-029) supplemented with 10% fetal bovine serum (FBS, Thermo Fisher Scientific), 1% Penicillin-Streptomycin (Thermo Fisher Scientific) and 1% nonessential amino acids (MEM NEAA, Thermo Fisher Scientific). Cells were grown at 37° C. and 5% CO2.
HT-1080 were seeded into 384-well plates (CulturPlates, PerkinElmer) with a density of 750 cells per well. After 24 h of growth, cells were treated with 10 or 12-point serial dilutions of compounds in indicated concentrations for 18 h. Viability was detected by using CellTiter-Glo® 2.0 Regent (Promega) according to the manufacturer's instruction and luminescence was read out in an EnVison 2104 Multilabel plate reader (PerkinElmer).

[1] = Cytotoxicity, cell viability assay; type: cell-based, Human; details: human, ht-1080 cells
Description: After 24 h of growth, cells were treated with 10 or 12-point serial dilutions of compounds in indicated concentrations for 18 h.

[2] = HT-1080, based on the assays of example 1, read-out: IC50 (Ferroptosis inhibition)
[3] = * = signal quenching at higher concentration, toxicity might be less than indicated, read-out: cytotoxic IC50
[4] = HT-1080, read-out: IC50 (Ferroptosis inhibition)

SMILES | IC50 (HT-1080; [2]) | cellular efficacy/toxicity window (HT-1080) | CC50 at 18 h [1, 3] | IC50 (HT-1080; [4]) | CC50 at 18 h [1]
CN(C)c1ccc(C(C2=C(O)C(=O)c3ccccc3C2=O)c2ccccc2)cc1 (stereo not shown) [iQFerr33, 2-[(4-dimethylamino-phenyl)phenylmethyl]-3-hydroxy-1,4-naphtoquinone] | 7.58 µM | 9-fold | 71.9 µM | – | –
O=C1C(O)=C(C(c2ccccc2)c2ccc(F)cc2)C(=O)c2ccccc21 (stereo not shown) [iQFerr34, 2-[(4-fluorophenyl)-phenylmethyl]-3-hydroxy 1,4-naphtoquinone] | – | – | 35 µM | 71.4 µM | –
O=C1C(Cl)=C(Nc2ccccc2)C(=O)c2ccccc21 [iQFerr16, 2-anilino-3-chloro-1,4-naphtoquinone] | 0.0045 µM | 62-fold | 0.279 µM | – | –
O=C1C(Cl)=C(Nc2ccc(O)cc2)C(=O)c2ccccc21 [iQFerr11, 2-chloro-3-(4-hydroxy-phenylamino)-1,4-naphtoquinone] | 0.006 µM | 48-fold | 0.293 µM | – | –
O=C(O)c1ccc2c(c1)C(=O)c1ccccc1C2=O [iQFerr08, Anthraquinone-2-carboxyclic acid] | – | – | – | 13 µM | > 100 µM
COc1ccc(CC2=CC(=O)c3ccccc3C2=O)cc1 [iQFerr31, 2-(4-methoxybenzyl)-1,4-naphtoquinone] | 1.06 µM | 8-fold | 8.7 µM | – | –
O=C1C=C(Cc2ccc(F)cc2)C(=O)c2ccccc21 [iQFerr28, 2-(4-fluorobenzyl)-1,4-naphtoquinone] | 0.0324 µM | 45-fold | 1.45 µM | – | –
Cc1ccc(NC2=CC(=O)C=CC2=O)c(C)c1 [iQFerr25, 2-(2,4-dimethylanilino)-benzo-1,4-quinone] | 0.176 µM | 5-fold | 0.759 µM | – | –
Cc1ccc(C(C2=C(O)C(=O)c3ccccc3C2=O)c2ccccc2)cc1 (stereo not shown) [iQFerr32, 2-hydroxy-3-[(4-methylphenyl)phenyl-methyl]-1,4-naphtoquinone] | 39.8 µM | – | 34.2 µM | – | –
COC1=C(OC)C(=O)C(CC=C(C)C)=C(C)C1=O [iQFerr07, Coenzyme Q1] | 0.03 µM | 333-fold | 10 µM | – | –
CC(=O)Nc1ccc(N(CCCCCC(N)=O)C2=CC(=O)c3ccccc3C2=O)cc1 [iQFerr49, 6-[(1,4-dioxo-1,4-dihydronaphthalen-2-yl)(4-acetamidophenyl)amino] hexanamide] | 0.0228 µM | 4895-fold | 112 µM | – | –
O=C(O)CCCNC1=C(Cl)C(=O)c2ccccc2C1=O [iQFerr15, 4-[(3-chloro-1,4-dioxo-1,4-dihydronaphthalen-2-yl)amino]butanoic acid] | 1.36 µM | 159-fold | 215 µM | – | –
O=C1C(Cl)=C(Nc2ccc(F)cc2)C(=O)c2ccccc21 [iQFerr17, 2-chloro-3-(4-fluoroanilino)-1,4-naphtoquinone] | 0.0061 µM | 65-fold | 0.397 µM | – | –
O=C(O)c1ccccc1NC1=CC(=O)c2c(O)cccc2C1=O [iQFerr23] | 3.48 µM | 5-fold | 16.4 µM | – | –
O=C1c2ccccc2C(=O)c2c1c(-c1ccccc1)nn2-c1ccccc1 [iQFerr24, 1,3-diphenyl-1H-benzo-f-indazole-4,9-dione] | > 100 µM | – | – | – | –
Cc1ccc(NC2=CC(=O)c3ccccc3C2=O)c(C)c1 [iQFerr37, 2-[(2,4-dimethylphenyl)amino]-1,4-dihydronaphthalene-1,4-dione] | 0.0154 µM | 3162-fold | 48.8 µM | – | –

SMILES | IC50 (HT-1080; [2]) | cellular efficacy/toxicity window (HT-1080) | CC50 at 18 h [1, 3] | IC50 (HT-1080; [4]) | CC50 at 18 h [1]
CC1=C(Nc2ccc(C)cc2)C(=O)c2ccccc2C1=O [iQFerr45, 2-methyl-3-[(4-methylphenyl)amino]-1,4-dihydronaphthalene-1,4-dione] | 0.00156 µM | 25634-fold | 40 µM | – | –
CC(C)=CC[C@@H](O)C1=CC(=O)c2c(O)ccc(O)c2C1=O [iQFerr03, Shikonin] | – | – | 0.269 µM | > 1 µM | –
COc1ccc(NC2=C(Cl)C(=O)c3ccccc3C2=O)cc1 [iQFerr12, 2-chloro-3-(4-methoxyanilino)-1,4-naphtoquinone] | 0.006 µM | 586-fold | 3.52 µM | – | –
CCOc1ccc(NC2=CC(=O)c3ccccc3C2=O)cc1 [iQFerr21, 2-(4-ethoxyanilino)-1,4-naphtoquinone] | 0.043 µM | 199-fold | 8.57 µM | – | –
Cc1ccc(N(CCCC(=O)O)C2=CC(=O)c3ccccc3C2=O)c(C)c1 [iQFerr42, 4-[(2,4-dimethylphenyl)(1,4-dioxo-1,4-dihydronaphthalen-2-yl)amino]butanoic acid] | 0.463 µM | 0,47-fold | 0.219 µM | – | –
CC(C)=CC[C@H](O)C1=CC(=O)c2c(O)ccc(O)c2C1=O [iQFerr04, Alkannin] | – | – | 0.573 µM | > 1 µM | –
CCOc1ccc(NC2=CC(=O)C=CC2=O)cc1 [iQFerr27, 2-(4-ethoxyanilino)-benzo-1,4-quinone] | 0.493 µM | 4-fold | 2.16 µM | – | –
Cc1ccc(NC2=C(Cl)C(=O)c3ccccc3C2=O)cc1 [iQFerr13, 2-chloro-3-(4-methylanilino)-1,4-naphtoquinone] | 0.003 µM | 126-fold | 0.38 µM | – | –
CC(=O)c1cccc(NC2=C(Cl)C(=O)c3ccccc3C2=O)c1 [iQFerr09, 2-(3-acetylanilino)-3-chloro-1,4-naphtoquinone] | 0.063 µM | 13-fold | 0.81 µM | – | –
O=C1C=C(Nc2ccccc2C(=O)O)C(=O)C=C1Nc1ccccc1C(=O)O [QFerr26, 2,2-(3,6-dioxo-1,4-cyclohexadiene-1,4-diyl-diimino)dibenzoic acid] | > 100 µM | – | 35.4 µM | – | –
CC(=O)Nc1ccc(NC2=C(Cl)C(=O)c3ccccc3C2=O)cc1 [iQFerr36, N-{4-[(3-chloro-1,4-dioxo-1,4-dihydronaphthalen-2 yl)amino]phenyl} acetamide] | 0.00736 µM | 77-fold | 0.564 µM | – | –
O=C(O)c1ccc(NC2=C(Cl)C(=O)c3ccccc3C2=O)cc1 [iQFerr18, 4-[(3-chloro-1,4-dioxo-1,4-dihydronaphthalen-2-yl)amino]benzoic acid] | 0.0941 µM | 27-fold | 2.55 µM | – | –
Cc1ccc(N(CCCC(N)=O)C2=CC(=O)c3ccccc3C2=O)c(C)c1 [iQFerr40, 4-[(2,4-dimethylphenyl)(1,4-dioxo-1,4-dihydronaphthalen-2-yl)amino]butanamide] | 0.189 µM | 1,2-fold | 0.23 µM | – | –
Cc1ccc(NC2=CC(=O)c3ccccc3C2=O)cc1 [iQFerr22, 2-(4-methylanilino)-1,4-naphtoquinone] | 0.0156 µM | 354-fold | 5.5 µM | – | –
CC(C)=CCCC1=CC(=O)c2c(O)ccc(O)c2C1=O [iQFerr05, Deoxyshikonin] | – | 6-fold | 1.62 µM | 0.287 µM | –
